Consider 18 substances from patent US20070161547A1, “Modulation of survivin expression” (priority 2003, published 2007).

The test system of one data set is survivin protein. Description: IC50 of dsRNA for survivin protein, quantitative Western blot ("W"). Format: cell-based, human. Particulars: for IC50: W (Western blot), HeLa cells. On the procedure:
Western blot analysis (immunoblot analysis) is carried out using standard methods. Cells are harvested 16-20 hours after oligonucleotide treatment, washed once with PBS, suspended in Laemmli buffer (100 μl/well), boiled for 5 minutes and loaded on a 16% SDS-PAGE gel. Gels are run for 1.5 hours at 150 V, and transferred to membrane for western blotting. Appropriate primary antibody directed to survivin is used, with a radiolabelled or fluorescently labeled secondary antibody directed against the primary antibody species. Bands are visualized using a PHOSPHORIMAGER™ (Molecular Dynamics, Sunnyvale, Calif.).
(§1) For western blot analysis, cells are plated in 10 cm tissue culture dishes (Falcon, #3003) at a density of 7.5×10^5 cells/dish. For RT-PCR analysis, 96-well plates (Corning Incorporated, #3596) are plated with 1×10^4 cells/well. Lipofectin (GIBCO/Invitrogen) transfection reagent is used at a concentration of 3 ul/ml OPTIMEM reduced serum medium (Gibco/Invitrogen)/100 nM siRNA duplex. Lipofectin reagent is incubated with OPTIMEM medium for 30 minutes prior to the addition of siRNA. The desired amount of siRNA is added and mixed. Further 1:1 dilutions are performed in OPTIMEM. Cells are washed twice with 1× phosphate buffered saline and then treated with the siRNA/Lipofectin mixture in OPTIMEM. After a 4 hr incubation period, OPTIMEM medium is replaced with complete growth medium. Cells are harvested after additional 16-20 hrs for Western blot or RT-PCR analysis.
At the end of the incubation period culture medium is removed and cells are washed twice with PBS. Cells are lysed in RIPA buffer (20 mM Tris-HCl, pH 7.4, 5 mM EDTA, 50 mM NaCl, 10 mM Sodium Pyrophosphate, 50 mM Sodium Fluoride, and 1% Nonidet P40) plus Complete™ Mini protease inhibitor tablets (Roche, #1836153) and 1 mM Sodium orthovanadate (Sigma) by directly adding buffer to the plate. Lysates are collected by scrapping, transferred to microfuge tubes and cleared from the cellular debris by centrifugation at 14,000 rpm for 30 minutes at 4° C. Protein concentrations are determined using BCA protein assay yeagents (Pierce). Total cellular protein is subjected to SDS-PAGE and transferred onto Immobilon-P membranes (Millipore, #IPVHO91). Membranes are probed with primary antibodies to survivin (R&D Systems, #AF886) and to β-Actin (Sigma, #A5441). Horseradish peroxidase linked Anti-rabbit Ig, and anti-mouse Ig, antibodies (Pharmacia) are used as secondary antibodies. Antigen-antibody complexes are visualized by incubation of membrane in SuperSigmal West Pico chemiluminescence reagents (Pierce) for 5 minutes followed by capturing of the chemiluminescence using Fluor-S imager (Biorad) equipped with the cool CCD camera. The protein bands of interest for each sample are quantified using Quantity One software (Biorad). The percentage inhibition for each samples are calculated by comparing the survivin/Actin protein ratio for the sample to survivin/Actin protein ratio for the untreated control. The IC50 is derived from the non-linear regression analysis of the percentage inhibition data using GraphPad Prism software (GraphPad Software).
The constructs tested comprise the antisense strand in the 5′-3′ orientation, and the sense strand in the 5′ to 3′ orientation, In Table 15, “D” is dose response (mRNA levels) and “W” is Western blot. All internucleoside linkages are phosphodiester unless otherwise noted by a lowercase “s” indicating a phosphorothioate linkage.

Data set [1] deals with human survivin mRNA. Description: IC50 of dsRNA for survivin mRNA, dose response by quantitative RT-PCR ("D"). Format: cell-based. On the procedure: Representative parameters that can be studied include, for example, translation of survivin mRNAs or survivin protein synthesis; effect on surrogate markers; or any other parameter that is indicative of potential dsRNA therapeutic effectiveness that can be conveniently measured in vitro.
as §1
Total RNA is isolated using RNeasy® 96 kit according to recommended protocol (Qiagen). Briefly, cells are washed with 200 ul PBS after removal of growth medium. Following washing, 100 μl buffer RLT is added, plate is shaken vigorously for about 20 seconds. To each well 100 μl 70% ethanol are added and mixed by pipetting up and down three times. Samples are then applied into the wells of the RNeasy 96 plate placed in the QIAvac top base of the QIAvac 96 manifold, which is attached to a vacuum source. Vacuum is applied for 30 seconds or until transfer is complete. To each well 80 μl of DNase I incubation mix (20 mM Tris-HCl, pH 8.4, 2 mM MgCl2, 50 mM KCl and 225 Units/ml DNase I from Invitrogen) is added and incubated at room temperature for 30 minutes. Buffer RW1 (1 ml/well) is added and the vacuum is applied for 30 seconds. Buffer RPE (1 ml/well) is added to each well and vacuum is applied for 30 seconds. Washing steps with buffer RW1 and RPE1 are repeated once more. The plate is then removed from the manifold and blotted dry on paper towels. The plate is placed back in the QIAvac manifold and the vacuum is applied for 10 minutes. To elute RNA 30 μl of RNase-free water is added directly onto the membrane of each well, incubated for 1 minutes and vacuum is applied for 30 seconds. In order to maximize the recovery of total RNA the elution step is repeated with additional 30 μl/well RNase-free water.
Quantitation of survivin and GAPDH mRNA levels is determined by real-time quantitative RT-PCR using the ABI PRISM® 7900 Sequence Detection System (Applied Biosystems). RT-PCR reactions are carried out by adding 15 ul of TaqMan One Step PCR Master Mix (Applied Biosystems, #4309169) reagents (containing 100 nM each of forward primer and reverse primer, and 200 nM probe) to 96-well plates with 10 μl total RNA. For human survivin, the forward PCR primer is: 5′[…]3′ (SEQ ID NO: 186), and the reverse primer is: 5′[…]3′ (SEQ ID NO: 187). The survivin TaqMan® probe used is 5′(FAM)[…]3′ (SEQ ID NO: 188) (Biosearch Technologies, Inc.). This primer-probe set, designed to SEQ ID No 14 was used for all experiments in Examples 15 to the end. For human GAPDH, TaqMan GAPDH Control Reagent Kit is used (Applied Biosystems, #402869). The percentage inhibition for each samples are calculated by comparing the survivin/GAPDH mRNA ratio for the sample to survivin/GAPDH mRNA ratio for the untreated control. The IC50 is derived from the non-linear regression analysis of the percentage inhibition data using GraphPad Prism software (GraphPad Software).
The constructs tested comprise the antisense strand in the 5′-3′ orientation, and the sense strand in the 5′ to 3′ orientation, In Table 15, “D” is dose response (mRNA levels) and “W” is Western blot. […]

Data set [2] concerns human survivin mRNA. Put plainly: Inhibition of human survivin mRNA expression in HeLa cells, real-time quantitative PCR. Format: cell-based. Conditions: Table 11, 16 h, averages from two experiments. A digest of the protocol: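 Percent inhibition of survivin mRNA after antisense oligonucleotide treatment of HeLa cells, from a standard curve built on serially diluted untreated-control mRNA. Quantitation by TaqMan real-time RT-PCR with survivin-specific FAM/TAMRA probe and primers; GAPDH probed with JOE/TAMRA.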

Setting [3] is: D (dose response, mRNA levels), HeLa cells, read-out: IC50.
Setting [4] is: Table 16, cell line not given, read-out: IC50 (nM) mRNA, dsRNA to human survivin.

Where two headings read alike, the source gives them in different places. Oligonucleotides are written 5' to 3', each unit as a sugar letter and its base; * is a phosphorothioate linkage, no mark a phosphodiester; rarer units and linkages stand in square brackets, end groups in braces. Plain capitals give the bases only. d = 2'-deoxy (DNA); m = 2'-O-methyl; r = 2'-OH (RNA)

By IC50 is commonly meant the concentration that inhibits the measured activity by half. The substance “339055_339085 (antisense AGUCCACACUCAGGACUGUG; sense CACAGUCCUGAGUGUGGACU; siRNA; unmodified RNA)” came in with an IC50 in the data set on survivin protein not below 100 nM.

“339059_339089 (antisense GCUAUUCUGUGAAUUAACAA; sense UUGUUAAUUCACAGAAUAGC; siRNA; unmodified RNA)” came in with an IC50 in the data set with survivin protein of 6.41 nM.

In turn, “339049_339079 (antisense AGCACAGUUGAAACAUCUAA; sense UUAGAUGUUUCAACUGUGCU; siRNA; unmodified RNA)” showed an IC50 with survivin protein of 6.12 nM.

The substance “339044_339074 (antisense AGGGCUGCCAGGCAGGGGGC; sense GCCCCUGCCUGGCAGCCCU; siRNA; listed as RNA, chemistry not fully specified)” returned an IC50 in the data set with survivin protein of 5.3 nM.

Take “Compound U17: canonical siRNA targeted to human survivin, two deoxythymidines at 3' end of each strand (Table 14) (antisense GGAGAUCAACAUUUUCAAA; sense UUUGAAAAUGUUGAUCUCC; RNA, 3' dTdT, backbone not given here)”: the “activity in Western blot analysis” value in the data set with survivin protein (in words) was “potent activity”. For the same substance, the “activity in quantitative RT-PCR analysis” value with human survivin mRNA [1] (in words) is “potent activity”.

In the data set with survivin protein, “339050_339080 (antisense AGAAGCACCUCUGGUGCCAC; sense GUGGCACCAGAGGUGCUUCU; siRNA; unmodified RNA)” showed an IC50 not below 100 nM.

With “339063_339093 (antisense AAGGAGUAUCUGCCAGACGC; sense GCGUCUGGCAGAUACUCCUU; siRNA; unmodified RNA)”, in the data set on survivin protein, half-maximal inhibition (IC50) required 6.2 nM.

“339054_339084 (antisense CAACAUGAGGUCCAGACACA; sense UGUGUCUGGACCUCAUGUUG; siRNA; unmodified RNA)” yielded an IC50 in the data set with survivin protein not below 100 nM.

Take “339048_346294 (antisense AUUUGAAAAUGUUGAUCUCC; sense rA*rGrG*rArG*rArU*rCrA*rArC*rArU*rUrU*rUrC*rArA*rA; siRNA; antisense: unmodified RNA)”: the results for the “Percentage of Inhibition of survivin expression in HeLa cells” value in the data set with human survivin mRNA [2] (0.2 nM), in the data set on human survivin mRNA [2] (2.0 nM) and with human survivin mRNA [2] (20.0 nM) were 39%, 65% and 85%, respectively. In addition, in the data set with human survivin mRNA [1] (setting [3]), the IC50 worked out at 0.24 nM.

“339064_339094 (antisense UAAUCACACAGCAGUGGCAA; sense UUGCCACUGCUGUGUGAUUA; siRNA; unmodified RNA)”: in the data set on survivin protein, the IC50 is 5.45 nM.

On to “339051_339081 (antisense UCCCUCACUUCUCACCUGGU; sense ACCAGGUGAGAAGUGAGGGA; siRNA; unmodified RNA)”, for which the IC50 with survivin protein was not below 100 nM.

The substance “339057_339087 (antisense CAGGGACUCUGUCUCCAUUC; sense GAAUGGAGACAGAGUCCCUG; siRNA; unmodified RNA)” gave an IC50 in the data set with survivin protein not below 100 nM.

Regarding “339046_339076 (antisense AACCCUGGAAGUGGUGCAGC; sense GCUGCACCACUUCCAGGGUU; siRNA; unmodified RNA)”, in the data set with survivin protein, the IC50 was 3.5 nM.

In the case of “339062_339092 (antisense UCCACCUGAAGUUCACCCCG; sense CGGGGUGAACUUCAGGUGGA; siRNA; unmodified RNA)”, the IC50 was 65.2 nM in the data set on survivin protein and 1.8 nM with human survivin mRNA [1] (setting [3]).

The substance “339066_339096 (antisense AAAGGAUUUAGGCCACUGCC; sense GGCAGUGGCCUAAAUCCUUU; siRNA; unmodified RNA)” had a half-maximal inhibitory concentration (IC50) in the data set on survivin protein of 1.72 nM.

On to “ISIS 353539_343868: dsRNA duplex: antisense 353539, sense 343868 (antisense UUUGAAAAUGUUGAUCUCC; sense GGAGAUCAACAUUUUCAAA; chemical modifications, chemistry not fully specified)”, for which the IC50 in the data set on human survivin mRNA [1] (setting [4]) turned out to be 0.13 nM.

Turning to “ISIS 352507_346287: dsRNA duplex: antisense 352507, sense 346287 (antisense mUrUmUrGmArAmArAmUrGmUrUmGrAmUrCmUrCmC; sense rG*rG*rA*rG*rA*rU*rC*rA*rA*rC*rA*rU*rU*rU*rU*rC*rA*rA*rA)”, the IC50 in the data set on human survivin mRNA [1] (setting [4]) was 0.8 nM.

Take “ISIS 352507_352512: blunt-ended siRNA duplex: antisense 352507, sense 352512 (antisense mUrUmUrGmArAmArAmUrGmUrUmGrAmUrCmUrCmC; sense mGmGmAmGmAmUmCmAmAmCmAmUmUmUmUmCmAmAmA)”: the IC50 in the data set on human survivin mRNA [1] (setting [4]) is 0.04 nM.
